The values below come from PMC8283759, “A Flavoprotein Dioxygenase Steers Bacterial Tropone Biosynthesis via Coenzyme A-Ester Oxygenolysis and Ring Epoxidation” (Journal of the American Chemical Society, 2021).

The structures appear in SMILES notation.

The test addresses T1, TdaEBp (Burkholderia plantarii, UniProt A0A0B6RWE3).
T1 construct: gene BGL_1c08010; heterologously produced and purified, N-terminal GB1 (subunit B of protein G) and C-terminal polyhistidine tag
The experiment in a line: UV-vis of purified protein (c280/c450). Type of test: binding. The following applies: loosely bound, co-purified; partial occupancy.

T1 sequence (A0A0B6RWE3 entry or part of it): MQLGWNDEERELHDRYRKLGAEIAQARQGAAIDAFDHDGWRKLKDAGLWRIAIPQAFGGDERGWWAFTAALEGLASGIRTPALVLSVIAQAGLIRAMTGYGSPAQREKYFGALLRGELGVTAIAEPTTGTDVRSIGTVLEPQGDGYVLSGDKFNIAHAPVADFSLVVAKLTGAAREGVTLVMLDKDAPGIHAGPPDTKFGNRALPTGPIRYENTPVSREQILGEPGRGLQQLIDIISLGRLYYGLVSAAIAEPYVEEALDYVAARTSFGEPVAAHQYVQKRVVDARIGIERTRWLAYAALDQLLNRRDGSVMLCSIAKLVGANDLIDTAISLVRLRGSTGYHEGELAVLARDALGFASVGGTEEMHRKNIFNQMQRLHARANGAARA

Consider `Cc1cc2nc3c(=O)[nH]c(=O)nc-3n(C[C@H](O)[C@H](O)[C@H](O)COP(=O)(O)OP(=O)(O)OC[C@H]3O[C@@H](n4cnc5c(N)ncnc54)[C@H](O)[C@@H]3O)c2cc1C` [FAD], for which the “UV-vis of purified protein (c280/c450)” value was “TdaE^Bp was weakly yellow due to a loosely bound FAD cofactor”.
